Experiments:
B16 [1] = assay: Cytotoxicity against mouse B16 cells after 48 hrs by MTT assay; assay type: functional, cell-based; conditions: B16, 48 h
B16 [2] = assay: Ratio of propargyl amine IC50 to compound IC50 for mouse B16 cells after 48 hrs by MTT assay; assay type: functional

SMILES | IC50 (B16 [1]) [µM] | Ratio IC50 (B16 [2])
C#CCNC(=O)c1cn(CCOC(C)=O)nn1 | > 100 | 
O=C(Nc1ccc(-c2cn(Cc3ccccc3)nn2)cc1)c1cn(Cc2ccccc2)nn1 | > 100 | 
CCOC(=O)Cn1cc(-c2ccc(NC(=O)c3cn(Cc4ccccc4)nn3)cc2)nn1 | 36.3 | 
CC(=O)OCCn1cc(-c2ccc(NC(=O)c3cn(Cc4ccccc4)nn3)cc2)nn1 | 13.2 | 
CCOC(=O)Cn1cc(C(=O)Nc2ccc(-c3cn(CCOC(C)=O)nn3)cc2)nn1 | > 100 | 
CC(=O)OCCn1cc(C(=O)Nc2ccc(-c3cn(Cc4ccccc4)nn3)cc2)nn1 | > 100 | 
CCOC(=O)Cn1cc(-c2ccc(NC(=O)c3cn(CCOC(C)=O)nn3)cc2)nn1 | > 100 | 
CC(=O)OCCn1cc(C(=O)Nc2ccc(-c3cn(CCOC(C)=O)nn3)cc2)nn1 | > 100 | 
O=C(Nc1ccccc1)c1cn(Cc2ccccc2)nn1 | 93 | 
CCOC(=O)Cn1cc(C(=O)Nc2ccccc2)nn1 | > 100 | 
CC(=O)OCCn1cc(C(=O)Nc2ccccc2)nn1 | > 100 | 
C#Cc1cccc(NC(=O)c2cn(Cc3ccccc3)nn2)c1 | 14.5 | 
C#Cc1cccc(NC(=O)c2cn(CC(=O)OCC)nn2)c1 | 91 | 
C#Cc1cccc(NC(=O)c2cn(CCOC(C)=O)nn2)c1 | 25.1 | 
C#Cc1ccc(NC(=O)c2cn(Cc3ccccc3)nn2)cc1 | > 100 | 
C#Cc1ccc(NC(=O)c2cn(CC(=O)OCC)nn2)cc1 | > 100 | 
C#Cc1ccc(NC(=O)c2cn(CCOC(C)=O)nn2)cc1 | 79 | 
O=C(NCc1cn(Cc2ccccc2)nn1)c1cn(Cc2ccccc2)nn1 | 0.3 | 
CCOC(=O)Cn1cc(CNC(=O)c2cn(Cc3ccccc3)nn2)nn1 | 35 | 
CC(=O)OCCn1cc(CNC(=O)c2cn(Cc3ccccc3)nn2)nn1 | 28 | 

SMILES | IC50 (B16 [1]) [µM] | Ratio IC50 (B16 [2])
O=C(Cn1cc(C(=O)NCc2cn(Cc3ccccc3)nn2)nn1)OCc1ccccc1 | 22.4 | 
CCOC(=O)Cn1cc(CNC(=O)c2cn(CC(=O)OCc3ccccc3)nn2)nn1 | > 100 | 
CC(=O)OCCn1cc(CNC(=O)c2cn(CC(=O)OCc3ccccc3)nn2)nn1 | > 100 | 
CC(=O)OCCn1cc(C(=O)NCc2cn(Cc3ccccc3)nn2)nn1 | > 100 | 
CCOC(=O)Cn1cc(CNC(=O)c2cn(CCOC(C)=O)nn2)nn1 | > 100 | 
CC(=O)OCCn1cc(CNC(=O)c2cn(CCOC(C)=O)nn2)nn1 | > 100 | 
O=C(Nc1cccc(-c2cn(Cc3ccccc3)nn2)c1)c1cn(Cc2ccccc2)nn1 | 4.5 | 
CCOC(=O)Cn1cc(-c2cccc(NC(=O)c3cn(Cc4ccccc4)nn3)c2)nn1 | 21 | 
CC(=O)OCCn1cc(-c2cccc(NC(=O)c3cn(Cc4ccccc4)nn3)c2)nn1 | 25.1 | 
CCOC(=O)Cn1cc(C(=O)Nc2cccc(-c3cn(Cc4ccccc4)nn3)c2)nn1 | 20.4 | 
CCOC(=O)Cn1cc(C(=O)Nc2cccc(-c3cn(CC(=O)OCC)nn3)c2)nn1 | > 100 | 
CCOC(=O)Cn1cc(C(=O)Nc2cccc(-c3cn(CCOC(C)=O)nn3)c2)nn1 | > 100 | 
CC(=O)OCCn1cc(C(=O)Nc2cccc(-c3cn(Cc4ccccc4)nn3)c2)nn1 | > 100 | 
CCOC(=O)Cn1cc(-c2cccc(NC(=O)c3cn(CCOC(C)=O)nn3)c2)nn1 | 63 | 
CC(=O)OCCn1cc(C(=O)Nc2cccc(-c3cn(CCOC(C)=O)nn3)c2)nn1 | > 100 | 
C#CCNC(=O)C#C | 38 | 
C#CC(=O)Nc1cccc(C#C)c1 | 0.3 | 127
C#CC(=O)Nc1ccc(C#C)cc1 | 6.3 | 
C#CCNC(=O)c1cn(Cc2ccccc2)nn1 | 65 | 
C#CCNC(=O)c1cn(CC(=O)OCc2ccccc2)nn1 | > 100 | 

Reference: ChEMBL document CHEMBL2311456, “Synthesis and in vitro evaluation of potential anticancer activity of mono- and bis-1,2,3-triazole derivatives of bis-alkynes” (Eur J Med Chem, 2013)
